Earlier results, collected in patent US9125929B2, “Trauma therapy” (Hibernation Therapeutics, A KF LLC, priority 2006, dated 2015).

Columns and labels:
[1] = orally and/or intravenous, 10, 25, 50 and 100 mg/kg body weight
[2] = 400 mg daily tablets
NK(2) receptor = target: T1, NK(2) receptor (Homo sapiens, UniProt P21452); conditions: NK(1) over NK(2)
T1 sequence (P21452 1-398): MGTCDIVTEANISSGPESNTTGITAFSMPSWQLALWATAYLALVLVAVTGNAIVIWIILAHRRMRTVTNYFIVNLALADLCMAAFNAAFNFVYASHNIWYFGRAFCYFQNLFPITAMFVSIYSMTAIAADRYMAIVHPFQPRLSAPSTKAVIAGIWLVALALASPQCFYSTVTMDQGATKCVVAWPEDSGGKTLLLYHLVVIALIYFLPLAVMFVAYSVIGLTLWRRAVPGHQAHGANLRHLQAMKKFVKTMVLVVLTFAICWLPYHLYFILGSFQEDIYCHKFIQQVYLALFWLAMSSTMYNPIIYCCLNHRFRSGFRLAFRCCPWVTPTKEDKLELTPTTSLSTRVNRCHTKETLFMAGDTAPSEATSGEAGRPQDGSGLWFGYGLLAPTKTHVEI

NK(3) receptor = target: T2, NK(3) receptor (Homo sapiens, UniProt P29371); conditions: NK(1) over NK(3)
T2 sequence (P29371 1-465): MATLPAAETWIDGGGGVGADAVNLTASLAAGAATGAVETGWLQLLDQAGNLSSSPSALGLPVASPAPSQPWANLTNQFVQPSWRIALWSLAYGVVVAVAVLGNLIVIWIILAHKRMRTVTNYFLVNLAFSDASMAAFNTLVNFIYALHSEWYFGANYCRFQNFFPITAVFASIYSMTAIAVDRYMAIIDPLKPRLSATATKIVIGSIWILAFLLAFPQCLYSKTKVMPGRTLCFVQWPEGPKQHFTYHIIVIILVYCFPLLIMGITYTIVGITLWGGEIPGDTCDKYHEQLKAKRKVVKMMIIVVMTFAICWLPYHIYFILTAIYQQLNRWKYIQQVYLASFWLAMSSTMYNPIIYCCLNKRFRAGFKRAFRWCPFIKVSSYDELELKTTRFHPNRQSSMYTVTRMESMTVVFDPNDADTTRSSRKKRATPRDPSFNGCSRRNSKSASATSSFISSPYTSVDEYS

human NK(1) receptor = human NK(1) receptor (Homo sapiens, UniProt P25103); conditions: read-out: K(i) for the human NK(1) receptor
human NK(1) receptor, sequence (P25103 whole entry): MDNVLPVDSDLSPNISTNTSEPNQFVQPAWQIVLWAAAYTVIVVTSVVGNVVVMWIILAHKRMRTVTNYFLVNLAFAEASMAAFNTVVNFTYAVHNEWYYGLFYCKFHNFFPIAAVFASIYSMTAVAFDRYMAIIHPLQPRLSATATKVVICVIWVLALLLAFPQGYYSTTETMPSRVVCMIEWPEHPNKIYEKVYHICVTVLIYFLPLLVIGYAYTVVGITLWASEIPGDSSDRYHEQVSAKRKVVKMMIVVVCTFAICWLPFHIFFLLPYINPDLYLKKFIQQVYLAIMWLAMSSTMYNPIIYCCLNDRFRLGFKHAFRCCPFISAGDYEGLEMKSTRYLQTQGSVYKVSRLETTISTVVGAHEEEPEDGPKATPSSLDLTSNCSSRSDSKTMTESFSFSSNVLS

In the case of `NC(=O)c1ncn([C@@H]2O[C@H](CO)[C@@H](O)[C@H]2O)c1N` [Acadesine, 5-amino-4-imidazole carboxamide ribonucleoside], the safety in humans [1] is listed as “safe”.

For `Nc1ncnc2c1ncn2[C@@H]1O[C@H](CO)[C@@H](O)[C@H]1O` [adenosine, 6-amino-9-β-D-ribofuranosyl-9H-purine], the “half life in the blood” value is listed as “about 10 seconds”.

For `OCCN(CCO)c1nc(N2CCCCC2)c2nc(N(CCO)CCO)nc(N3CCCCC3)c2n1` [Dipyridamole], the plasma level [2] is given as “about 0.4 microgram/ml” and the “plasma level (concentration)” value [2] is given as ~800 nM.

For `Cc1cccc(C)c1NC(=O)C[C@H]1CCN(C(=O)c2cc(C(F)(F)F)cc(C(F)(F)F)c2)[C@@H](Cc2ccccc2)C1.O=C(O)C[C@H](O)C(=O)O` (relative stereo) [R116301, (2R-trans)-4-[1-[3,5-bis(trifluoromethyl)benzoyl]-2-(phenylmethyl)-4-piperidinyl]-N-(2,6-dimethylphenyl)-1-acetamide(S)-Hydroxybutanedioate], the “selectivity toward NK(2) receptor” value (NK(2) receptor) is given as “over 200 fold”, the “selectivity toward NK(3) receptor” value (NK(3) receptor) is given as “over 200 fold” and the Ki (human NK(1) receptor) is given as 450 pM.
